What follows are compounds tested against recombinant DYRK1A kinase (Homo sapiens (Human), UniProt Q13627) (assay: DYRK1A kinase assay (Ser/Thr 18 peptide Z-lyte FRET assay)). Conditions: DYRK1A 0.25 μg/mL, ATP 15 μM, Ser/Thr peptide 18 4 μM; one hour at room temperature; 11-point dose-response, duplicate.
Format: biochemical
Experimental: Representative compounds were screened using the assay procedure for DYRK1A kinase activity as described below.
Each compound was dissolved in DMSO as a 10 mM stock and used to prepare compound source plates.
This is a non-radioactive assay using fluorescence resonance energy transfer (FRET) between coumarin and fluorescein to detect kinase activity which is represented as a ratio of coumarin emission/fluorescein emission.
The mixture was allowed to incubate with the representative compounds for one hour at room temperature. All reactions were performed in duplicate. Unphosphorylated (“0% Control”) and phosphorylated (“100% control”) forms of Ser/Thr 18 served as control reactions. Additionally, an 11-point dose-response curve of Staurosporine (1 uM top) was run to serve as a positive compound control.
After incubation, Development Reagent A was diluted in Development Buffer then added to the reaction and allowed to further incubate for one hour at room temperature.
Dose-response curves were generated, and inhibitory concentration (IC50) values were calculated using non-linear regression curve fit in the Dotmatics' Studies Software (Bishops Stortford, UK).

SMILES	IC50
CNc1nc(N[C@H]2CCN(C)CC2(F)F)nn2ccc(-c3ccc4nc(C)n(CC(F)F)c4n3)c12 [Compound 215, (S)—N^2-(3,3-Difluoro-1-methylpiperidin-4-yl)-5-(3-(2,2-difluoroethyl)-2-methyl-3H-imidazo[4,5-b]pyridin-5-yl)-N^4-methylpyrrolo[2,1-f][1,2,4]triazine-2,4-diamine]	4.4 nM
CNc1nc(NC2(C)CCOCC2)nn2ccc(-c3ccc4nc(C)n(CC(F)F)c4n3)c12 [Compound 218, 5-(3-(2,2-Difluoroethyl)-2-methyl-3H-imidazo[4,5-b]pyridin-5-yl)-N^4-methyl-N^2-(4-methyltetrahydro-2H-pyran-4-yl)pyrrolo[2,1-f][1,2,4]triazine-2,4-diamine]	14.2 nM
CNc1nc(N[C@@H]2[C@@H]3CNC[C@@H]32)nn2ccc(-c3ccc4nc(C)n(CC(F)F)c4n3)c12 [Compound 219, N^2-((1R,5S,6r)-3-Azabicyclo[3.1.0]hexan-6-yl)-5-(3-(2,2-difluoroethyl)-2-methyl-3H-imidazo[4,5-b]pyridin-5-yl)-N^4-methylpyrrolo[2,1-f][1,2,4]triazine-2,4-diamine]	6.7 nM
CNc1nc(N[C@@H]2[C@@H]3CN(C(C)=O)C[C@@H]32)nn2ccc(-c3ccc4nc(C)n(CC(F)F)c4n3)c12 [Compound 220, 1-((1R,5S,6r)-6-((5-(3-(2,2-Difluoroethyl)-2-methyl-3H-imidazo[4,5-b]pyridin-5-yl)-4-(methylamino)pyrrolo[2,1-f][1,2,4]triazin-2-yl)amino)-3-azabicyclo[3.1.0]hexan-3-yl)ethan-1-one]	9.7 nM
CNc1nc(N[C@@H]2[C@@H]3COC[C@@H]32)nn2ccc(-c3ccc4nc(C)n(CC(F)F)c4n3)c12 [Compound 222, N^2-((1R,5S,6s)-3-Oxabicyclo[3.1.0]hexan-6-yl)-5-(3-(2,2-difluoroethyl)-2-methyl-3H-imidazo[4,5-b]pyridin-5-yl)-N^4-methylpyrrolo[2,1-f][1,2,4]triazine-2,4-diamine]	4.1 nM
CNc1nc(N[C@H]2CC[C@]3(CCO3)CC2)nn2ccc(-c3ccc4nc(C)n(CC(F)F)c4n3)c12 [Compound 227, 5-(3-(2,2-Difluoroethyl)-2-methyl-3H-imidazo[4,5-b]pyridin-5-yl)-N^4-methyl-N^2-((4s,7s)-1-oxaspiro[3.5]nonan-7-yl)pyrrolo[2,1-f][1,2,4]triazine-2,4-diamine]	3.3 nM
CNc1nc(NC2C3CCC2CN(C)C3)nn2ccc(-c3ccc4nc(C)n(CC(F)F)c4n3)c12 (stereo not drawn) [Compound 228, 5-(3-(2,2-Difluoroethyl)-2-methyl-3H-imidazo[4,5-b]pyridin-5-yl)-N^4-methyl-N^2-(3-methyl-3-azabicyclo[3.2.1]octan-8-yl)pyrrolo[2,1-f][1,2,4]triazine-2,4-diamine]	2.8 nM
CNc1nc(N[C@@H]2CCNCC2(F)F)nn2ccc(-c3ccn4nccc4n3)c12 [Compound 339, (R)—N^2-(3,3-Difluoropiperidin-4-yl)-N^4-methyl-5-(pyrazolo[1,5-a]pyrimidin-5-yl)pyrrolo[2,1-f][1,2,4]triazine-2,4-diamine]	2.2 nM

Compounds with a lower IC50, results first:

IC50	SMILES
0.8 nM	CNc1nc(N[C@H]2CCN(C)C[C@H]2F)nn2ccc(-c3ccc4nc(C)n(CC(F)F)c4n3)c12 [Compound 204, 5-(3-(2,2-Difluoroethyl)-2-methyl-3H-imidazo[4,5-b]pyridin-5-yl)-N^2-((3R,4S)-3-fluoro-1-methylpiperidin-4-yl)-N^4-methylpyrrolo[2,1-f][1,2,4]triazine-2,4-diamine]
1 nM	CNc1nc(N[C@@H]2CCN(C)C[C@@H]2F)nn2ccc(-c3ccc4nc(C)n(CC(F)F)c4n3)c12 [Compound 205, 5-(3-(2,2-Difluoroethyl)-2-methyl-3H-imidazo[4,5-b]pyridin-5-yl)-N^2-((3S,4R)-3-fluoro-1-methylpiperidin-4-yl)-N^4-methylpyrrolo[2,1-f][1,2,4]triazine-2,4-diamine]
1.1 nM	CNc1nc(N[C@@H]2CCN(C)CC2(F)F)nn2ccc(-c3ccc4nc(C)n(CC(F)F)c4n3)c12 [Compound 214, (R)—N^2-(3,3-Difluoro-1-methylpiperidin-4-yl)-5-(3-(2,2-difluoroethyl)-2-methyl-3H-imidazo[4,5-b]pyridin-5-yl)-N^4-methylpyrrolo[2,1-f][1,2,4]triazine-2,4-diamine]
0.8 nM	CNc1nc(N[C@@H]2CCN(C3COC3)CC2(F)F)nn2ccc(-c3ccc4nc(C)n(CC(F)F)c4n3)c12 [Compound 216, (R)—N^2-(3,3-Difluoro-1-(oxetan-3-yl)piperidin-4-yl)-5-(3-(2,2-difluoroethyl)-2-methyl-3H-imidazo[4,5-b]pyridin-5-yl)-N^4-methylpyrrolo[2,1-f][1,2,4]triazine-2,4-diamine]
1.7 nM	CNc1nc(N[C@H]2CCN(C3COC3)CC2(F)F)nn2ccc(-c3ccc4nc(C)n(CC(F)F)c4n3)c12 [Compound 217, (S)—N^2-(3,3-Difluoro-1-(oxetan-3-yl)piperidin-4-yl)-5-(3-(2,2-difluoroethyl)-2-methyl-3H-imidazo[4,5-b]pyridin-5-yl)-N^4-methylpyrrolo[2,1-f][1,2,4]triazine-2,4-diamine]
1.6 nM	CNc1nc(N[C@H]2[C@@H]3COC[C@@H]32)nn2ccc(-c3ccc4nc(C)n(CC(F)F)c4n3)c12 [Compound 221, N^2-((1R,5S,6r)-3-Oxabicyclo[3.1.0]hexan-6-yl)-5-(3-(2,2-difluoroethyl)-2-methyl-3H-imidazo[4,5-b]pyridin-5-yl)-N^4-methylpyrrolo[2,1-f][1,2,4]triazine-2,4-diamine]
1.1 nM	CNc1nc(NC2CC3(CCN(C(C)=O)CC3)C2)nn2ccc(-c3ccc4nc(C)n(CC(F)F)c4n3)c12 [Compound 223, 1-(2-((5-(3-(2,2-Difluoroethyl)-2-methyl-3H-imidazo[4,5-b]pyridin-5-yl)-4-(methylamino)pyrrolo[2,1-f][1,2,4]triazin-2-yl)amino)-7-azaspiro[3.5]nonan-7-yl)ethan-1-one]
0.2 nM	CNc1nc(NC2CCC3(CC2)CN(C(C)=O)C3)nn2ccc(-c3ccc4nc(C)n(CC(F)F)c4n3)c12 [Compound 224, 1-(7-((5-(3-(2,2-Difluoroethyl)-2-methyl-3H-imidazo[4,5-b]pyridin-5-yl)-4-(methylamino)pyrrolo[2,1-f][1,2,4]triazin-2-yl)amino)-2-azaspiro[3.5]nonan-2-yl)ethan-1-one]
0.8 nM	CNc1nc(NC2CCC3(CC2)COC3)nn2ccc(-c3ccc4nc(C)n(CC(F)F)c4n3)c12 [Compound 225, 5-(3-(2,2-Difluoroethyl)-2-methyl-3H-imidazo[4,5-b]pyridin-5-yl)-N^4-methyl-N^2-(2-oxaspiro[3.5]nonan-7-yl)pyrrolo[2,1-f][1,2,4]triazine-2,4-diamine]
2 nM	CNc1nc(N[C@H]2CC[C@@]3(CCO3)CC2)nn2ccc(-c3ccc4nc(C)n(CC(F)F)c4n3)c12 [Compound 226, 5-(3-(2,2-Difluoroethyl)-2-methyl-3H-imidazo[4,5-b]pyridin-5-yl)-N^4-methyl-N^2-((4r,7r)-1-oxaspiro[3.5]nonan-7-yl)pyrrolo[2,1-f][1,2,4]triazine-2,4-diamine]
